Results as given in paper PMC7265341, “Quantifying CDK inhibitor selectivity in live cells” (Nature Communications, 2020).
pIC50: −log10 of the molar value. Like-named read-outs stand apart in the source and are kept apart here.

Columns and labels:
[1] = molecular target: CDK1/Cyclin E1 (Homo sapiens, UniProt P06493); assay: NanoBRET live-cell target engagement, CDK1-NanoLuc/Cyclin E1 in HEK-293; assay type: binding; conditions: 10µM
[2] = molecular target: CDK3/Cyclin E1 (Homo sapiens, UniProt Q00526); assay: NanoBRET live-cell target engagement, CDK3-NanoLuc/Cyclin E1 in HEK-293; assay type: binding
[3] = molecular target: CDK4/Cyclin D1 (Homo sapiens, UniProt P11802); assay: NanoBRET live-cell target engagement, NanoLuc-CDK4/Cyclin D1 in HEK-293; assay type: binding; conditions: 10µM
Sequence of CDK4/Cyclin D1 (P11802 whole entry): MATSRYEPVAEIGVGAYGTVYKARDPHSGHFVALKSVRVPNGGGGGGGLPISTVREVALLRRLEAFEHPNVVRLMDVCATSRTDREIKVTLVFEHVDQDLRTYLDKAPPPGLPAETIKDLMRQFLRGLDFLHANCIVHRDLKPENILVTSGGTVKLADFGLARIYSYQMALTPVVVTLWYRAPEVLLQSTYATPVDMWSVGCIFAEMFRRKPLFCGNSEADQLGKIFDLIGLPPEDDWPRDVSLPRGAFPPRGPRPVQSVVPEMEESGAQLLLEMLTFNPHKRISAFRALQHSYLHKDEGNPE
Sequence of CDK4/Cyclin D1 (P24385 whole entry partner): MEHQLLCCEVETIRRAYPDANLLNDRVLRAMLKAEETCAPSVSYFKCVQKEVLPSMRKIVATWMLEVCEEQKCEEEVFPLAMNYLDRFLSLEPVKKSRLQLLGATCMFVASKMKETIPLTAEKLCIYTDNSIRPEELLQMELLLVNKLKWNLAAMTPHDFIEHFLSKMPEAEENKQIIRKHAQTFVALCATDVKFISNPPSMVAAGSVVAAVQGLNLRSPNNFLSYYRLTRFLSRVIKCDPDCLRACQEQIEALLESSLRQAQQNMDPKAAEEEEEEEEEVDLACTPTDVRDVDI

[4] = molecular target: CDK5/CDK5R1 (Homo sapiens, UniProt Q00535); assay: NanoBRET live-cell target engagement, CDK5-NanoLuc/CDK5R1 in HEK-293; assay type: binding; conditions: 10µM
Sequence of CDK5/CDK5R1 (Q00535 whole entry): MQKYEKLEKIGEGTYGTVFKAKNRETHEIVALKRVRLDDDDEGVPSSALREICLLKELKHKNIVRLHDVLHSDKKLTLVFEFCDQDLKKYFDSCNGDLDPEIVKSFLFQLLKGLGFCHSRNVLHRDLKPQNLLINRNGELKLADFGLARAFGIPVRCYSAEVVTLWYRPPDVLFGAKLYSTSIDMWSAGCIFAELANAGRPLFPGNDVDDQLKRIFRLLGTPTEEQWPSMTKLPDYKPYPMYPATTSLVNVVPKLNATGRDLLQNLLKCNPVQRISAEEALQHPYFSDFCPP
Sequence of CDK5/CDK5R1 (Q15078 whole entry partner): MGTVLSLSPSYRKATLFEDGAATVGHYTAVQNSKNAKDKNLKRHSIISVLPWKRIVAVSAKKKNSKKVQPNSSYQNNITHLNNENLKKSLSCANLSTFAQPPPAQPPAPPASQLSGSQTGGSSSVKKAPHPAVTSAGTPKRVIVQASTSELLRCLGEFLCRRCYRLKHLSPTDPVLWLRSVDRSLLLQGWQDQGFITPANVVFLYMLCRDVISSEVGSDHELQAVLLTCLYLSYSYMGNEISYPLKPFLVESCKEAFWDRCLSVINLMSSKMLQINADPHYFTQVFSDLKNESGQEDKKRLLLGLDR

[5] = molecular target: CDK6/Cyclin D1 (Homo sapiens, UniProt Q00534); assay: NanoBRET live-cell target engagement, NanoLuc-CDK6/Cyclin D1 in HEK-293; assay type: binding; conditions: 10µM
Sequence of CDK6/Cyclin D1 (Q00534 whole entry): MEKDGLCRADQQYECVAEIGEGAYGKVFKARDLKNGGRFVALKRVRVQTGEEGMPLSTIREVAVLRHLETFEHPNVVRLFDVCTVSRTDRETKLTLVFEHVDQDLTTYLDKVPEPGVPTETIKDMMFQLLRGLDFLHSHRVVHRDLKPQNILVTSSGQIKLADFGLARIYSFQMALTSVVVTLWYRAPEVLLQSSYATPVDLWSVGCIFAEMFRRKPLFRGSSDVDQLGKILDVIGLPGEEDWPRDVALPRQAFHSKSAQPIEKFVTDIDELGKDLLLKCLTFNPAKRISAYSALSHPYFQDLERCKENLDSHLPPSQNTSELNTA
Sequence of CDK6/Cyclin D1 (P24385 whole entry partner): as the sequence (P24385 whole entry partner) above

[6] = molecular target: CDK7 (Homo sapiens, UniProt P50613); assay: NanoBRET live-cell target engagement, NanoLuc-CDK7 in HEK-293; assay type: binding; conditions: 10µM
Sequence of CDK7 (P50613 whole entry): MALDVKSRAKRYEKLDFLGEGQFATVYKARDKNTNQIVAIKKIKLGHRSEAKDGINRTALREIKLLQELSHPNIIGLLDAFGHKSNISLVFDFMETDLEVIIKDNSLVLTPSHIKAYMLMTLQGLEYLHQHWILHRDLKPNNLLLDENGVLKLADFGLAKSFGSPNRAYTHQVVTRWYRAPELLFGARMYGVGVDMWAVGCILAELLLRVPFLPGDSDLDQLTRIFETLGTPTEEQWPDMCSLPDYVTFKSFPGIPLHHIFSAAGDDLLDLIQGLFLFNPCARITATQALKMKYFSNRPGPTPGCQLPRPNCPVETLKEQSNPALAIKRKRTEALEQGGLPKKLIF

[7] = molecular target: CDK8/Cyclin C (Homo sapiens, UniProt P49336); assay: NanoBRET live-cell target engagement, NanoLuc-CDK8/Cyclin C in HEK-293; assay type: binding; conditions: 10µM
[8] = molecular target: CDK9/Cyclin K (Homo sapiens, UniProt P50750); assay: NanoBRET live-cell target engagement, NanoLuc-CDK9/Cyclin K in HEK-293; assay type: binding; conditions: 10µM
[9] = molecular target: T1, CDK11A/Cyclin L2 (Homo sapiens, UniProt Q9UQ88); assay: NanoBRET live-cell target engagement, CDK11A-NanoLuc/Cyclin L2 in HEK-293; assay type: binding; conditions: 10µM
T1 sequence (Q9UQ88 1-783): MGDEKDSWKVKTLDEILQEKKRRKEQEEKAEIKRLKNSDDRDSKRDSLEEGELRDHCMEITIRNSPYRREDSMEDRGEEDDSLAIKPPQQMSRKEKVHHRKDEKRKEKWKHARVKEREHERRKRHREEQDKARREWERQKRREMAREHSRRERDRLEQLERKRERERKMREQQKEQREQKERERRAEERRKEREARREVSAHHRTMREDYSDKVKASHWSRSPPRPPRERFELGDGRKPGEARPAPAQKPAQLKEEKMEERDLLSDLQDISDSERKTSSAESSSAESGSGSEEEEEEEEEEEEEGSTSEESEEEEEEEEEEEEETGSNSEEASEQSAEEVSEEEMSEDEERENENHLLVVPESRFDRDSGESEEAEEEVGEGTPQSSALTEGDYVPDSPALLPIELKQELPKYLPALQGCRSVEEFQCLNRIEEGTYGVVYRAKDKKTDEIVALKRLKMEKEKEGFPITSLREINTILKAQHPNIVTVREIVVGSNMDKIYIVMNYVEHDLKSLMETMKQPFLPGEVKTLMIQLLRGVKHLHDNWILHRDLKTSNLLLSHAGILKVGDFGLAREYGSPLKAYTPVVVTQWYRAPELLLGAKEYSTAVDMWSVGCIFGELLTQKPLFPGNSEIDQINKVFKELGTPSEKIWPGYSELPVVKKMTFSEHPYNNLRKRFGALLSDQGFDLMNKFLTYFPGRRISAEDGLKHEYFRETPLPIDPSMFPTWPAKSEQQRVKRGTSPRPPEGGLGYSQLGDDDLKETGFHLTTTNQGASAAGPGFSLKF

[10] = molecular target: CDK11B/Cyclin L2 (Homo sapiens, UniProt P21127); assay: NanoBRET live-cell target engagement, CDK11B-NanoLuc/Cyclin L2 in HEK-293; assay type: binding; conditions: 10µM
Sequence of CDK11B/Cyclin L2 (P21127 1-782 isoform P21127-2): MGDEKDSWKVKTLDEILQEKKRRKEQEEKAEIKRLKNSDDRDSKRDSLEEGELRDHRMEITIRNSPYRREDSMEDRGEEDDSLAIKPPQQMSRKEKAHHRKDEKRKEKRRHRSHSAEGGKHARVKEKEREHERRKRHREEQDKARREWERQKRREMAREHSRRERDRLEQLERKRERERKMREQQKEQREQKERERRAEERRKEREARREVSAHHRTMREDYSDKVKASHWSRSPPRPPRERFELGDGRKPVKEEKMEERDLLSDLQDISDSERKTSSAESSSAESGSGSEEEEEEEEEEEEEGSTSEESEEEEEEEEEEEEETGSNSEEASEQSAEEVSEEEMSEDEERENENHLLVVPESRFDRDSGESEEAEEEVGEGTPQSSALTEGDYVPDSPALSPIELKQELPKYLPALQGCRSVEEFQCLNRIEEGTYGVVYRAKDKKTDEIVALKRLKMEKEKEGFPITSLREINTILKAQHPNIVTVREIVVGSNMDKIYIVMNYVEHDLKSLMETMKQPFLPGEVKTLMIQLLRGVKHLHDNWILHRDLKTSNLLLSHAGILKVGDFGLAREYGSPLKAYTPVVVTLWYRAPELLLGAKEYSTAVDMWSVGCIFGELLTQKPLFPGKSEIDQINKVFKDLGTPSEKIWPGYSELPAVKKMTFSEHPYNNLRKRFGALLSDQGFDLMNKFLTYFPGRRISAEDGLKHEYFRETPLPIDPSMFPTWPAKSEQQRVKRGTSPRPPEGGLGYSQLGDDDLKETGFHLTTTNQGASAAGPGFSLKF

[11] = molecular target: CDK12/Cyclin K (Homo sapiens, UniProt Q9NYV4); assay: NanoBRET live-cell target engagement, CDK12-NanoLuc/Cyclin K in HEK-293; assay type: binding; conditions: 10µM
[12] = molecular target: CDK13/Cyclin K (Homo sapiens, UniProt Q14004); assay: NanoBRET live-cell target engagement, CDK13-NanoLuc/Cyclin K in HEK-293; assay type: binding; conditions: 10µM
[13] = molecular target: CDK14/Cyclin Y (Homo sapiens, UniProt O94921); assay: NanoBRET live-cell target engagement, CDK14-NanoLuc/Cyclin Y in HEK-293; assay type: binding; conditions: 10µM
Sequence of CDK14/Cyclin Y (O94921 whole entry): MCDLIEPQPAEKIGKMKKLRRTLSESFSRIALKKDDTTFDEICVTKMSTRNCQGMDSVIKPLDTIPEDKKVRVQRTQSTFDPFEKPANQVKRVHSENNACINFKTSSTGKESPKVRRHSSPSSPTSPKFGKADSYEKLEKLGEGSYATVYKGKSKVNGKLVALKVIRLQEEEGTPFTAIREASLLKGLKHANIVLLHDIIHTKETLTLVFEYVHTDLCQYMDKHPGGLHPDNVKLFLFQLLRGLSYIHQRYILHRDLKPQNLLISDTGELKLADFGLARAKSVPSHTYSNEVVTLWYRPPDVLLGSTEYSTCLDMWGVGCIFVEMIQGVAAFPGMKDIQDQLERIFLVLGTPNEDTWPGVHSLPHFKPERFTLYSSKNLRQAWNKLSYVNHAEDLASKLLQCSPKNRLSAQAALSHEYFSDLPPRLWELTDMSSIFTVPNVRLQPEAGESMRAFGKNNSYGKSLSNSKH
Sequence of CDK14/Cyclin Y (Q8ND76 whole entry partner): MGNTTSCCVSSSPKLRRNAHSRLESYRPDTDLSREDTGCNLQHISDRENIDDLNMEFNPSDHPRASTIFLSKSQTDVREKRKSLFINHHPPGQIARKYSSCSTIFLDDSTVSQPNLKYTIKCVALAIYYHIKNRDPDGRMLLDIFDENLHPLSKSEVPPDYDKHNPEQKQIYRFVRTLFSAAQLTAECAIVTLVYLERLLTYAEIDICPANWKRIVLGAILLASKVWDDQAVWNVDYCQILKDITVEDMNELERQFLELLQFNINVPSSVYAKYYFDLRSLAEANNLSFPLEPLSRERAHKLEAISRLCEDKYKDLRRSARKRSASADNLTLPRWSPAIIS

[14] = molecular target: CDK15/Cyclin Y (Homo sapiens, UniProt Q96Q40); assay: NanoBRET live-cell target engagement, NanoLuc-CDK15/Cyclin Y in HEK-293; assay type: binding; conditions: 10µM
Sequence of CDK15/Cyclin Y (Q96Q40 whole entry): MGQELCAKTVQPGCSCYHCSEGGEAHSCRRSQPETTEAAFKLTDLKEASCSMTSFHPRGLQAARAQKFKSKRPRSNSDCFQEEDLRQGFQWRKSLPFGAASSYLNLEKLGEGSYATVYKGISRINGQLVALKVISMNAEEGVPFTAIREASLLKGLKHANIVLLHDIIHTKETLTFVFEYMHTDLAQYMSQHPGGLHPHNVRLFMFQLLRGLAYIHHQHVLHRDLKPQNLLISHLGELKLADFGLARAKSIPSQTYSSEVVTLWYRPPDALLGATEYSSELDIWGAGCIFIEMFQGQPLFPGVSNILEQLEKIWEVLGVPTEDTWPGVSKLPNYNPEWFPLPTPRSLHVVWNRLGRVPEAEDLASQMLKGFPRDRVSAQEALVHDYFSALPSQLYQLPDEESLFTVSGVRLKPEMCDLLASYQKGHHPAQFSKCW
Sequence of CDK15/Cyclin Y (Q8ND76 whole entry partner): as the sequence (Q8ND76 whole entry partner) above

[15] = molecular target: CDK16/Cyclin Y (Homo sapiens, UniProt Q00536); assay: NanoBRET live-cell target engagement, CDK16-NanoLuc/Cyclin Y in HEK-293; assay type: binding; conditions: 10µM
[16] = molecular target: CDK17/Cyclin Y (Homo sapiens, UniProt Q00537); assay: NanoBRET live-cell target engagement, CDK17-NanoLuc/Cyclin Y in HEK-293; assay type: binding; conditions: 10µM
[17] = molecular target: CDK18/Cyclin Y (Homo sapiens, UniProt Q07002); assay: NanoBRET live-cell target engagement, CDK18-NanoLuc/Cyclin Y in HEK-293; assay type: binding; conditions: 10µM
Sequence of CDK18/Cyclin Y (Q07002 whole entry): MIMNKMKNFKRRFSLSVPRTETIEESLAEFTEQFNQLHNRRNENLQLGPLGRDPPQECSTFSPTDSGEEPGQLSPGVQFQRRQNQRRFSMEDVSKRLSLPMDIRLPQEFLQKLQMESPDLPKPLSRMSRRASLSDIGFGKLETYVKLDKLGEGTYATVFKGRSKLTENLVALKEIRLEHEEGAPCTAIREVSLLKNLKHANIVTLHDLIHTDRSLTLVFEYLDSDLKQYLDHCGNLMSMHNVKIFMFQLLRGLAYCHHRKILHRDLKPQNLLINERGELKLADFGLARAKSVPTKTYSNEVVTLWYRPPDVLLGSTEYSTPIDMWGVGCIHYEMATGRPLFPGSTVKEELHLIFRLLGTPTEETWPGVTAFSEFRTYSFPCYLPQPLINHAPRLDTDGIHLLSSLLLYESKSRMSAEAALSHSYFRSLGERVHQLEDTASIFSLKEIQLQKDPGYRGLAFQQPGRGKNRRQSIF
Sequence of CDK18/Cyclin Y (Q8ND76 whole entry partner): as the sequence (Q8ND76 whole entry partner) above

[18] = molecular target: CDK20/Cyclin H (Homo sapiens, UniProt Q8IZL9); assay: NanoBRET live-cell target engagement, NanoLuc-CDK20/Cyclin H in HEK-293; assay type: binding; conditions: 10µM
[19] = molecular target: CDK19/Cyclin C (Homo sapiens, UniProt Q9BWU1); assay: NanoBRET live-cell target engagement, NanoLuc-CDK19/Cyclin C in HEK-293; conditions: 10µM
[20] = molecular target: CDK10/Cyclin L2 (Homo sapiens, UniProt Q15131); assay: NanoBRET live-cell target engagement, CDK10-NanoLuc/Cyclin L2 in HEK-293; conditions: 10µM
Sequence of CDK10/Cyclin L2 (Q15131 whole entry): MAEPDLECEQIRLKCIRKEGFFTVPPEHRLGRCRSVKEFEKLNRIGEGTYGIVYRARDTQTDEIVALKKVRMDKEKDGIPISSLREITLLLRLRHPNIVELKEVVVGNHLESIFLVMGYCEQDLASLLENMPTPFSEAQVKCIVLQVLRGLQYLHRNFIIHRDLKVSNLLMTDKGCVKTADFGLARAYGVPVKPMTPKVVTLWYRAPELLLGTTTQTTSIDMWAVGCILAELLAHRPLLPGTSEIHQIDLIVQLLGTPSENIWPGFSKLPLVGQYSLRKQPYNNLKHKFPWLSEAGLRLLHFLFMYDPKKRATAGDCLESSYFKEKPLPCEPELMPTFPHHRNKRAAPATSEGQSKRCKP

## O=C1NC(=NCc2cccs2)S/C1=C\c1ccc2ncccc2c1 [RO-3306]
[1]; average of experiments
  CDK1/E1 Inhibition at 10µM (%): 81.7%
[1]; independent experiment 1
  CDK1/E1 Inhibition at 10µM (%): 78.1%
[1]; independent experiment 2
  CDK1/E1 Inhibition at 10µM (%): 85.3%
[2]; average of experiments
  CDK3/E1 Inhibition at 10µM (%): 74.0%
[2]; independent experiment 1
  CDK3/E1 Inhibition at 10µM (%): 51.6%
[2]; independent experiment 2
  CDK3/E1 Inhibition at 10µM (%): 96.3%
[2]; independent experiment 1, read-out: CDK3/E1 IC50
  pIC50: 6.85
[2]; independent experiment 2, read-out: CDK3/E1 IC50
  pIC50: 6.55
[2]; independent experiment 3, read-out: CDK3/E1 IC50
  pIC50: 6.74
[2]; live HEK-293, 2 h, mean ± S.E.M. (n=3) or mean (n=2), read-out: IC50 for CDK/cyclin complexes, CDK3/E1
  pIC50: 6.70
[3]; average of experiments
  CDK4/D1 Inhibition at 10µM (%): -19.5%
[3]; independent experiment 1
  CDK4/D1 Inhibition at 10µM (%): 11.3%
[3]; independent experiment 2
  CDK4/D1 Inhibition at 10µM (%): -50.4%
[4]; average of experiments
  CDK5/CDK5R1 Inhibition at 10µM (%): -1.8%
[4]; independent experiment 1
  CDK5/CDK5R1 Inhibition at 10µM (%): 10.9%
[4]; independent experiment 2
  CDK5/CDK5R1 Inhibition at 10µM (%): -14.5%
[5]; average of experiments
  CDK6/D1 Inhibition at 10µM (%): 15.6%
[5]; independent experiment 1
  CDK6/D1 Inhibition at 10µM (%): 22.8%
[5]; independent experiment 2
  CDK6/D1 Inhibition at 10µM (%): 8.5%
[6]; average of experiments
  CDK7 Inhibition at 10µM (%): 57.8%
[6]; independent experiment 1
  CDK7 Inhibition at 10µM (%): 37.4%
[6]; independent experiment 2
  CDK7 Inhibition at 10µM (%): 78.3%
[7]; average of experiments
  CDK8/C Inhibition at 10µM (%): 17.8%
[7]; independent experiment 1
  CDK8/C Inhibition at 10µM (%): 15.7%
[7]; independent experiment 2
  CDK8/C Inhibition at 10µM (%): 20.0%
[8]; average of experiments
  CDK9/K Inhibition at 10µM (%): 29.2%
[8]; independent experiment 1
  CDK9/K Inhibition at 10µM (%): 10.0%
[8]; independent experiment 2
  CDK9/K Inhibition at 10µM (%): 48.5%
[9]; average of experiments
  CDK11a/L2 Inhibition at 10µM (%): 25.4%
[9]; independent experiment 1
  CDK11a/L2 Inhibition at 10µM (%): 51.4%
[9]; independent experiment 2
  CDK11a/L2 Inhibition at 10µM (%): -0.5%
[10]; average of experiments
  CDK11b/L2 Inhibition at 10µM (%): 10.3%
[10]; independent experiment 1
  CDK11b/L2 Inhibition at 10µM (%): 7.5%
[10]; independent experiment 2
  CDK11b/L2 Inhibition at 10µM (%): 13.1%
[11]; average of experiments
  CDK12/K Inhibition at 10µM (%): 10.6%
[11]; independent experiment 1
  CDK12/K Inhibition at 10µM (%): 8.2%
[11]; independent experiment 2
  CDK12/K Inhibition at 10µM (%): 13.0%
[12]; average of experiments
  CDK13/K Inhibition at 10µM (%): 7.2%
[12]; independent experiment 1
  CDK13/K Inhibition at 10µM (%): 3.3%
[12]; independent experiment 2
  CDK13/K Inhibition at 10µM (%): 11.1%
[13]; average of experiments
  CDK14/Y Inhibition at 10µM (%): 0.0648%
[13]; independent experiment 1
  CDK14/Y Inhibition at 10µM (%): 3.4%
[13]; independent experiment 2
  CDK14/Y Inhibition at 10µM (%): -3.3%
[14]; average of experiments
  CDK15/Y Inhibition at 10µM (%): 22.3%
[14]; independent experiment 1
  CDK15/Y Inhibition at 10µM (%): 12.8%
[14]; independent experiment 2
  CDK15/Y Inhibition at 10µM (%): 31.8%
[15]; independent experiment 1
  CDK16/Y Inhibition at 10µM (%): 47.1%
[15]; independent experiment 2
  CDK16/Y Inhibition at 10µM (%): 19.7%
[16]; average of experiments
  CDK17/Y Inhibition at 10µM (%): 40.0%
[16]; independent experiment 1
  CDK17/Y Inhibition at 10µM (%): 13.8%
[16]; independent experiment 2
  CDK17/Y Inhibition at 10µM (%): 66.1%
[17]; average of experiments
  CDK18/Y Inhibition at 10µM (%): 16.9%
[17]; independent experiment 1
  CDK18/Y Inhibition at 10µM (%): 3.1%
[17]; independent experiment 2
  CDK18/Y Inhibition at 10µM (%): 30.7%
[18]; independent experiment 1
  CDK20/H Inhibition at 10µM (%): 63.6%
[18]; independent experiment 2
  CDK20/H Inhibition at 10µM (%): 19.4%
[19]; average of experiments
  CDK19/C Inhibition at 10µM (%): 19.5%
[19]; independent experiment 1
  CDK19/C Inhibition at 10µM (%): 15.2%
[19]; independent experiment 2
  CDK19/C Inhibition at 10µM (%): 23.8%
[20]; average of experiments
  CDK10/L2 Inhibition at 10µM (%): 22.6%
[20]; independent experiment 1
  CDK10/L2 Inhibition at 10µM (%): 6.5%
[20]; independent experiment 2
  CDK10/L2 Inhibition at 10µM (%): 38.7%
